Measured values: ChEMBL document CHEMBL1201862, “PubChem BioAssay data set” (2004)
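The compound was tested at five concentrations on cells cultured in 96-well plates, with a 48-hour exposure period. GI50 = concentration required for 50% inhibition of growth.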 Calls of active or inactive are those of the source. Rule as the data show it: active = GI50 up to about 1.1 µM and inactive = higher.

Tests used:
Assay in all cases: growth of human tumour cells (NCI), 48 h
[1] = tested on: SF-268
[2] = tested on: OVCAR-8
[3] = tested on: COLO 205
[4] = tested on: HOP-92
[5] = tested on: RPMI-8226
[6] = tested on: OVCAR-3
[7] = tested on: SW-620
[8] = tested on: UO-31
[9] = tested on: CCRF-CEM
[10] = tested on: HL-60
[11] = tested on: UACC-257
[12] = tested on: SK-OV-3
[13] = tested on: A549
[14] = tested on: RXF 393

Measured: GI50

O=C(CCC(=O)C(C(=O)c1ccccc1)c1ccccc1)Nc1cccc(C(F)(F)F)c1 (stereo not drawn)
inactive: [1] > 100 µM | [2] > 100 µM | [3] > 100 µM | [4] > 100 µM | [5] > 100 µM | [6] > 100 µM | [7] > 100 µM | [8] > 100 µM | [9] > 100 µM | [10] > 100 µM | [11] > 100 µM | [12] > 100 µM | [13] > 100 µM

COCOCc1cc(OCc2ccccc2)c(OC)cc1Br
inactive: [1] 84.9 µM | [2] > 100 µM | [3] > 100 µM | [4] > 100 µM | [5] 47 µM | [6] > 100 µM | [7] > 100 µM | [9] > 100 µM | [11] > 100 µM | [14] 47.4 µM | [13] > 100 µM

O=C(Nc1c(O)[nH]c(=S)[nH]c1=O)c1ccccc1
inactive: [1] > 100 µM | [2] > 100 µM | [3] > 100 µM | [4] > 100 µM | [5] > 100 µM | [6] > 100 µM | [7] > 100 µM | [8] > 100 µM | [9] > 100 µM | [10] > 100 µM | [11] > 100 µM | [12] > 100 µM | [13] > 100 µM

O=c1[nH]c2c(c3ccccc13)CCc1ccccc1-2
inactive: [1] > 100 µM | [2] > 100 µM | [3] > 100 µM | [5] > 100 µM | [6] > 100 µM | [7] > 100 µM | [8] > 100 µM | [11] > 100 µM | [12] > 100 µM | [14] > 100 µM | [13] > 100 µM

O=C(NCC#CCO)C(F)(F)F
inactive: [1] > 100 µM | [2] > 100 µM | [7] > 100 µM | [8] > 100 µM | [11] > 100 µM | [12] 97.5 µM | [14] > 100 µM | [13] > 100 µM

COc1ccc(-c2onc(-c3ccc([N+](=O)[O-])cc3)c2C2=NCCN2)cc1
inactive: [1] 72.3 µM | [2] > 100 µM | [3] > 100 µM | [5] > 100 µM | [6] > 100 µM | [7] > 100 µM | [8] 29.6 µM | [9] > 100 µM | [10] > 100 µM | [11] 18.5 µM | [14] 32.3 µM | [13] > 100 µM

N#CC(C#N)=c1c2nsnc2c(=C(C#N)C#N)c2nsnc12
inactive: [1] 2.3 µM | [2] 1.69 µM | [3] 2.52 µM | [4] 1.45 µM | [6] 3.66 µM | [7] 1.47 µM | [8] 1.84 µM | [10] 2.27 µM | [11] 1.94 µM | [14] 1.28 µM | [13] 3.6 µM

Cc1nc2c(N)ncnc2o1
inactive: [1] > 100 µM | [2] > 100 µM | [3] > 100 µM | [4] > 100 µM | [6] > 100 µM | [7] > 100 µM | [8] > 100 µM | [9] > 100 µM | [10] > 100 µM | [11] > 100 µM | [12] > 100 µM | [14] > 100 µM | [13] > 100 µM

O=[N+]([O-])C(=C(c1ccccc1)c1ccccc1)[N+](=O)[O-]
inactive: [1] 4.57 µM | [2] 9.86 µM | [3] 12.4 µM | [5] 2.45 µM | [6] 20.7 µM | [7] 11.4 µM | [8] 22.1 µM | [9] 2.93 µM | [10] 3.32 µM | [11] 13.1 µM | [14] 3.69 µM | [13] 23.1 µM

Cc1nc2c(n1CCC(C)C)C(=O)c1ccccc1C2=O
inactive: [1] 14.3 µM | [2] 27.9 µM | [3] 14.3 µM | [6] 23.5 µM | [7] 37.9 µM | [8] 24.8 µM | [9] 13.6 µM | [10] 6 µM | [11] 27.7 µM | [12] 38.4 µM | [14] 23.4 µM | [13] 30.4 µM

C=CCN1CCC23c4c5ccc(O)c4OC2C(=NN=C2CCC4(O)C6Cc7ccc(O)c8c7C4(CCN6CC=C)C2O8)CCC3(O)C1C5 (stereo not drawn)
inactive: [1] 53.8 µM | [2] 25.6 µM | [3] 19.9 µM | [4] 17.6 µM | [5] 39.2 µM | [6] 18.5 µM | [7] 21.4 µM | [8] > 100 µM | [9] 34.8 µM | [10] > 10 µM | [11] 23.9 µM | [12] 37.5 µM | [13] 21.4 µM

Cc1cc2c(=O)c3ccc(Cl)cc3[nH]c2c(C(=O)O)c1C
inactive: [1] > 100 µM | [2] > 100 µM | [3] > 100 µM | [5] > 100 µM | [6] > 100 µM | [7] > 100 µM | [8] 46.1 µM | [9] > 100 µM | [11] > 100 µM | [12] > 100 µM | [14] 47.5 µM | [13] > 100 µM

CCOC(=O)C12CCCC1(O)N(NC(=O)OC)C(C)=C2C(=O)OC (stereo not drawn)
inactive: [1] > 100 µM | [2] > 100 µM | [3] > 100 µM | [4] > 100 µM | [5] > 100 µM | [6] > 10 µM | [7] > 100 µM | [8] > 100 µM | [9] > 100 µM | [10] > 100 µM | [11] > 100 µM | [12] > 100 µM | [13] > 100 µM

CCCCN(CCCC)CCCn1cnc2ncccc2c1=O
inactive: [1] > 100 µM | [2] > 100 µM | [3] 65.6 µM | [4] > 100 µM | [6] > 100 µM | [7] > 100 µM | [8] > 100 µM | [9] > 100 µM | [12] > 100 µM | [14] > 100 µM | [13] > 100 µM

O=C(CC12C3C4C1C1C2C3C41CC(=O)NO)NO (stereo not drawn)
inactive: [1] 50 µM | [2] 33.1 µM | [3] 46.3 µM | [4] 39.3 µM | [5] 40.3 µM | [6] 34.3 µM | [7] 38.9 µM | [9] 26.7 µM | [10] 36.9 µM | [11] 21.8 µM | [13] 37.8 µM

CSc1ccc2c(cc1=O)C(NC(=O)c1ccc(OC(C)=O)cc1)CCc1cc(O)c(O)c(O)c1-2 (stereo not drawn)
inactive: [1] 42.1 µM | [2] 25.1 µM | [3] 16.9 µM | [6] 20.8 µM | [7] 13.1 µM | [8] 35.6 µM | [9] 3.43 µM | [10] 3.31 µM | [11] 19.5 µM | [12] 38.4 µM | [13] 33.9 µM

CCCN(CCC)c1c([N+](=O)[O-])cc(C(N)=O)cc1[N+](=O)[O-]
inactive: [1] > 100 µM | [2] 92.9 µM | [3] 86.9 µM | [5] > 100 µM | [6] 78 µM | [8] 65.5 µM | [9] 39.1 µM | [10] 27.8 µM | [11] 49.4 µM | [12] 58.3 µM | [13] 81.8 µM
